This passage reports melting point results from a melting point compilation (Tetko et al.; mined from patent text by program, amines drawn as free bases though some values may be those of a salt).

By melting point is commonly meant the temperature of the solid-liquid transition.

Regarding `CCC(C)(CC)NC(=NC#N)Nc1cccnc1`, the melting point lay in the range of 184 to 186 °C. Under `COc1ccc(C(=O)Nc2cccc(-c3cccc4c3/C(=C/c3ccc[nH]3)C(=O)N4)c2)cc1` stands 209 to 211 °C.

`CCCCC(OCC(=O)c1ccccc1)C(F)CC` (configuration not stated) gave a melting point of 39.6 to 40.1 °C.

On to `Cc1ccc(-c2cncnc2N)cc1`, for which the melting point lay within 166 to 167 °C. To `Cn1nc(-c2c(Cl)cncc2Cl)nc1Cc1ccncc1` belongs 130 to 132 °C; to `CCCOc1ccccc1-c1nc2nc(NC)nnc2c(=O)[nH]1`, 261 to 263 °C; to `CC(=O)Nc1cc(Cl)c(Br)c(Cl)c1`, 224 °C. To `CCc1cc2c(ccc(=O)n2Cc2ccc(-c3ccccc3S(N)(=O)=O)cc2)c(CC)n1` belongs 199 to 200 °C. Under `CCCNC(=S)Nc1ccnc(CCCCCN2C(=O)c3ccccc3C2=O)n1` stands 146 to 149 °C. For `CNc1cc(S(=O)(=O)c2cccc(C(F)(F)F)c2)cc(Br)n1`, the melting point was in the range of 115 to 117 °C. For the molecule `CCC(C)c1ccc(-n2c(-c3cc(C)c(OCCO)c(C)c3)nc3ccc(OC)cc3c2=O)cc1` (configuration not stated), the melting point is 152 to 154 °C. To `CC(C)NCCCOc1ccc(N)cc1Cc1ccccc1` belongs 41.1 °C; to `O=S1(=O)N=C(c2cccc(Cl)c2)c2ccccc21`, 149 to 150 °C. `CCOC(=O)C(C(=O)OCC)c1cc(=O)n(-c2ccccc2)c2ccccc12`: the melting point fell in the range of 101 to 103 °C.

With `CCOC(=O)c1cn2c(nc1=O)CCC2C` (configuration not stated), the melting point was found to be 130 °C. To `CCCc1nc2c(N)nc3ccc(N)cc3c2s1` belongs 190 to 192 °C; to `CC1(Cc2cccc(N)c2)Cc2ccccc2C1=O` (configuration not stated), 95 to 98 °C; to `CC(=O)c1c(-c2ccccc2Cl)nc2occn12`, 121 to 122 °C. To `NC(=O)c1ccc(CCBr)cc1` belongs 152 to 153 °C; to `CCOC(=O)C1CNc2ccc([N+](=O)[O-])cc2O1` (configuration not stated), 130 to 132 °C. To `COc1cc(C)nc(NC(=O)NS(=O)(=O)c2cccc3c2S(=O)(=O)C(C)C3)n1` (configuration not stated) belongs 224 to 226 °C; to `CCCn1c(=O)c2c(nc(/C=C/c3ccc(Cl)cc3)n2C)n(CCC)c1=O`, 175 to 187 °C.

For `CC1(C(=O)O)CC1(Br)Br` (configuration not stated), the melting point fell in the range of 108 to 109 °C.

In turn, `Cc1ccc2c(c1)c(=O)n1nc(C(=O)O)cc1n2C` returned a melting point of 269 °C. Under `N#Cc1ccc(N2CCN(Cc3cn4cc(Cl)ccc4n3)CC2)c(Cl)c1` stands 137 to 138 °C; under `COc1cc(C(=O)OCCCCBr)ccc1O`, 83 to 88 °C; under `COc1ccccc1N1CCN(C[C@H]2COc3ccc4nc(C)ccc4c3O2)CC1`, 44 to 47 °C.

Molecule `CCOC(=O)c1cnc2nc(C(=O)O)c(OCC)cc2c1O` displayed a melting point of 270 to 272 °C. Take `Cc1ccc2occ(-c3ccccc3)c2c1`: the melting point fell in the range of 99 to 108 °C.

`CCCC(=O)N1CCc2nc3ccccc3c(C)c2CC1` registered a melting point of 130 °C. To `O=S(=O)(/C=C/c1ccccc1)CS(=O)(=O)/C=C/c1ccccc1` belongs 128 to 130 °C; to `CC(=O)COc1ccc(N2N=C3c4cc(F)ccc4CCC3CC2=O)cc1` (configuration not stated), 195 to 196 °C. To `Cc1oc(-c2ccccc2)nc1CN(C)C(=O)c1ccc(C=C2SC(=O)NC2=O)cc1` belongs 95 to 98 °C; to `CCn1nc(OCCCc2ccc(OCCOC)cc2OCc2ccc(Cl)cc2Cl)cc1CCC(=O)O`, 114 to 116 °C. Under `N#Cc1ccc(-c2cc(N(Cc3ccc(O)cc3)n3cnnc3)ccc2C#N)cc1` stands 221 to 223 °C; under `NCC1(CC(=O)O)CCCCCC1`, 180 °C. `Nc1ccc(-c2noc(-c3cnn4c(C(F)(F)F)cc(-c5ccc(Cl)c(Cl)c5)nc34)n2)cn1` gave a melting point of 289 °C. Under `COc1cc(C(C)=O)cc(OC)c1OCCCC(=O)O` stands 122 to 124 °C. Under `C=Cc1ccnc2c([N+](=O)[O-])cccc12` stands 134 °C; under `Cc1cc2c(-c3cccc(C(F)(F)F)c3)nc(COCC(F)(F)F)nc2s1`, 40 to 41 °C; under `CCCOc1ccnc2c1c(C(C)=O)cn2S(=O)(=O)c1ccccc1`, 119 to 121 °C. To `CCCCSc1nc(O)ns1` belongs 78 °C. On to `Cn1cc(C(F)(F)F)c(C(=O)O)c1Cl`, for which the melting point was in the range of 197 to 198 °C.

The molecule `CCC(O)CNC(=O)c1nn(C2CCCCO2)cc1NC(=O)c1ccccn1` (configuration not stated) displayed a melting point of 160 to 161 °C.

As to `CC(c1ccccc1)C(C)([N+](=O)[O-])[N+](=O)[O-]` (configuration not stated), the melting point was 76 to 78 °C.

`Cc1cc(OCC2CO2)c2cc(C(=O)N(C)C)[nH]c2c1` (configuration not stated) registered a melting point of 197 to 204 °C. Under `COc1ccc2c(-c3ccccc3)c(C(=O)c3ccc(Cl)cc3)sc2c1` stands 115 °C; under `CCCCCCC(=N)NC(=S)Nc1cccc(C(F)(F)F)c1`, 105 to 107 °C. Under `S=Cc1cccc(Cl)c1Cc1ccccc1` stands 68 to 70 °C; under `CC(c1oc2ccccc2c(=O)c1-c1cccc(F)c1)n1nc(-c2ccc(F)c(O)c2)c2c(N)ncnc21` (configuration not stated), 241 to 244 °C.

Molecule `CCOC(=O)CCCCCn1c(=O)[nH]c2ccccc2c1=O` showed a melting point of 103 to 104 °C. `CC(=O)OCCCCc1c(C)[nH]c(C(=O)OC(C)(C)C)c1C` gave a melting point of 62 °C. In turn, `CCCCCCCCCCCCCCCCCCOC(=O)COc1ccc(C2C(=O)Oc3c(C)cc(C)cc32)cc1` (configuration not stated) came in with a melting point of 57 to 59 °C.

With `Cc1cc(-c2c(-c3ccc(S(N)(=O)=O)cc3)cnn(-c3ccc(F)cc3)c2=O)ccc1F`, the melting point is 202 to 204 °C. To `O=c1cc(-c2ccoc2)c2ccc(S)cc2o1` belongs 167 to 170 °C.

Molecule `CC(=O)c1ccc(OC(CCCCC(=O)O)c2ccccc2)cc1O` (configuration not stated) registered a melting point of 91 to 93 °C. Molecule `Cc1noc(NC(=O)N2CCN(c3cncc(-c4ccc(F)cc4F)c3)CC2)c1C` came in with a melting point of 147 to 148 °C. To `N#Cc1ccc(C(=C2C3CC4CC(C3)CC2C4)c2ncc[nH]2)cc1` belongs 155 °C.

On to `COC(=O)c1cc2c(I)cccc2cn1`, for which the melting point lay within 165 to 167 °C. Under `O=C1c2ccccc2C(=O)N1C[C@H]1CN2C(=O)C[C@@H]2O1` (racemic) stands 137 to 138 °C; under `COc1ccc(Cl)c2c1CCC(CCl)=C2`, 68 to 69.5 °C.

`O=C[C@H](Cc1c[nH]c2ccccc12)NC(=O)[C@H](Cc1ccccc1)NC(=O)OCc1ccccc1` came in with a melting point of 74 to 77 °C. Molecule `CCOC(=O)c1ccc(-c2nc(COc3ccc(CCl)cc3OCC)c(C)o2)s1` returned a melting point of 157 to 158 °C. Under `CCOC(=O)Nc1ccc(OC)c(OC)c1C1OCCO1` stands 95 to 96 °C; under `Cc1cc(C(O)CN2CCC(O)(c3ccc4c(c3)COCC4)CC2)ccc1O` (configuration not stated), 178 °C; under `Cn1c(CC(=O)O)ccc1C(=O)c1cccs1`, 141 to 142 °C. To `COC(=O)COc1ccc2cc(-c3csc(Cc4c(Cl)cccc4Cl)n3)ccc2c1` belongs 174 to 177 °C. Under `c1cc(-c2ccc(N3CCNCC3)cc2)[nH]n1` stands 290 °C; under `COC(=O)c1cc(C(=O)N2CCCOCC2)c2cc(Cc3ccc(F)cc3)cnc2c1O`, 136 to 137 °C. As to `COc1cc(NCCCCCC(=O)NCC(C)C)c2nccc(C)c2c1`, the melting point was in the range of 111 to 112 °C. To `Fc1ccc(-c2nc3ccc(N4CCC(N5CCCC5)CC4)nn3c2-c2ccnc3[nH]ccc23)cc1` belongs 261 to 264 °C; to `CC(CNc1ccc(C(=O)O)cc1)Oc1cccc2ccccc12` (configuration not stated), 142 to 144 °C. Under `COC(=O)c1sccc1S(=O)(=O)Nc1onc(C)c1C` stands 113 to 116 °C; under `CC(C)(C)C1CCCC(=Cc2ccc(Cl)cc2)C1(O)Cn1cncn1` (configuration not stated), 171 °C; under `CCc1nc(N)nc2c1nc(NC)n2C1CC(N=[N+]=[N-])C(CO)O1` (configuration not stated), 38 to 43 °C.

Molecule `O=C(Nc1ccc2c(c1)OCC(=S)N2)C(=O)N1CCC(Cc2ccccc2)CC1` registered a melting point of 193 to 196 °C. To `CON=C(C(=O)OC)c1cc(C)c(C)cc1COc1ccccc1C` belongs 82 to 84 °C; to `CCCOc1ccc(S(=O)(=O)N2CCN(CCOC(C)=O)CC2)cc1-c1nc2c(CCC)cn(CC)c2c(=O)[nH]1`, 139 to 140 °C; to `O=C(c1cccs1)c1cnn2c(-c3ccc(Cl)nc3)ccnc12`, 145 to 148 °C.

`O=C(Nc1cc(C(F)(F)F)ccc1Cl)Nc1cc(Cl)cc(Br)c1O` showed a melting point of 261 to 274 °C. To `CC(=O)C(=NO)c1ccc(F)cc1F` belongs 126 to 129 °C; to `O=[N+]([O-])c1cc(Cl)c(Oc2ccccc2)cc1Oc1ccccc1`, 95 °C; to `Cc1nc(CCN2CCOCC2)c2c(n1)N(CC#N)C(=O)C(N)O2` (configuration not stated), 126 to 128 °C. Under `CCOc1nn(Cc2ccnc(OCc3cn4c(-c5ccccc5)cccc4n3)c2)cc1CCC(=O)O` stands 177 to 178 °C; under `CC(C)(C)[Si](ON1C(=O)c2ccccc2C1=O)(c1ccccc1)c1ccccc1`, 138 to 143 °C; under `OC1CCc2cc(Cl)c(Cl)cc2C1` (configuration not stated), 103 to 105 °C. To `CC(C)(C)c1cc(C(=O)NN)cc(C(C)(C)C)c1O` belongs 187 to 188 °C; to `COc1ccc(NS(C)(=O)=O)cc1C(=O)NC1CCN(C2CCCCC2)C1` (configuration not stated), 170 to 172 °C; to `CS(=O)(=O)c1ccc(-c2nc(C(F)(F)F)nc(N=[N+]=[N-])c2-c2ccc(Cl)cc2)cc1`, 317 to 320 °C. As for `CC1CN(c2cc3c(c(NCc4ccccc4)c2F)c(=O)c(C(=O)O)cn3C2CC2)CCN1` (configuration not stated), the melting point is 129 to 130 °C. To `COc1ccc(C=NS(=O)(=O)c2ccc(C)cc2)cc1` belongs 127 °C.

As to `CN(C(=O)NN1CC=CCC1)c1ccccc1`, the melting point was in the range of 99 to 99.5 °C.
